# Reference: publication PMC6149849, “Cymantrenyl-Nucleobases: Synthesis, Anticancer, Antitrypanosomal and Antimicrobial Activity Studies” (Molecules : A Journal of Synthetic Chemistry and Natural …, 2017)
# Like-named read-outs stand apart in the source and are kept apart here.
# Assays:
# [1] = tested on: SKOV-3 (ovarian adenocarcinoma); assay: MTT cytotoxicity assay, SKOV-3; assay type: cell-based, human
# Experimental: (§3) Anticancer activity of cymantrenes was determined using a panel of human cancer cell lines that were derived from solid tumors. […] The inhibitory effect of cymantrene derivatives on cell proliferation and growth was determined based on survival curves and was expressed as IC50 values (concentration required to achieve a 50% decrease in cell viability when compared to the viability of untreated control cells) calculated using GraphPad Prism 4.02 software for Windows (GraphPad Software, San Diego, CA, USA). Cell viability was determined by the MTT microplate spectrophotometric cytotoxicity test.
# (§4) The cytotoxicity of cymantrene derivatives was evaluated by the MTT microplate methods as described elsewhere [67] by incubating the cells with increasing concentrations of tested compounds for 24 h. Briefly, 0.1 mL of logarithmically growing cells were seeded in a 96-well microplate (5 × 10^4 cells/well) a day before the experiments and after 24 h of culture, tested compounds, dissolved in DMSO, and diluted in culture medium, were added. […] After further incubation for 24 h, the medium was replaced with fresh medium and the cells were allowed to grow for additional 48 h. Then, the medium was aspirated and 0.05 mL of MTT (final concentration of 5 mg/mL medium) added to each well, and the cells were incubated for further 4 h. The absorbance of the product, resulting from the MTT reduction, was read with a microplate reader at 545 nm. The percentage of viable cells was calculated by comparing the absorbance of treated cells with that of the untreated control cells (taken as 100%). The IC50 concentration of each compound was calculated from the cell survival curves using GraphPad Prism 4.02 software for Windows (GraphPad Software, San Diego, CA, USA).
# [2] = tested on: A549 (non-small cell lung carcinoma); assay: MTT cytotoxicity assay, A549
# Experimental: Anticancer activity of cymantrenes was determined using a panel of human cancer cell lines that were derived from solid tumors. These included cell lines of estrogen-responsive, doxorubicin resistant, and triple negative breast adenocarcinomas (MCF-7, MCF-7/DX, and MDA-MB-231), ovarian adenocarcinoma (SKOV-3), non-small cell lung carcinoma (A549), hepatocellular carcinoma (HepG2), and glioblastoma (U-87 MG). The inhibitory effect of cymantrene derivatives on cell proliferation and growth was determined based on survival curves and was expressed as IC50 values (concentration required to achieve a 50% decrease in cell viability when compared to the viability of untreated control cells) calculated using GraphPad Prism 4.02 software for Windows (GraphPad Software, San Diego, CA, USA). Cell viability was determined by the MTT microplate spectrophotometric cytotoxicity test.
# Anticancer activity of cymantrene derivetives were determined on the basis of their cytotoxic effects on a panel of human cancer cells, as derived from different types of solid tumors: estrogen responsive breast adenocarcinoma (MCF-7), triple negative breast adenocarcinoma (MDA-MB-231), ovarian adenocarcinoma (SKOV-3), non-small cell lung carcinoma (A549), hepatocellular carcinoma (HepG2), and glioblastoma (U-87 MG). Additionally, doxorubicin resistant breast adenocarcinoma cells (MCF-7/Dox) were also included for comparison. All of the cell lines were purchased from American Type Culture Collection (ATCC, Rockville, MD, USA), except the MCF-7/dox cell line, which was a generous gift from Professor Malgorzata Latocha from the Department of Cell Biology, Medical University of Silesia in Katowice, Poland.
# Cells were grown as a monolayer in DMEM growth medium, supplemented with 10% FBS, penicillin (10 U/mL) and streptomycin (50 μg/mL), under standard conditions (37 °C, 5% CO2 and 95% air, 100% humidity) and periodically checked for Mycoplasma contamination.
# The cytotoxicity of cymantrene derivatives was evaluated by the MTT microplate methods as described elsewhere by incubating the cells with increasing concentrations of tested compounds for 24 h. Briefly, 0.1 mL of logarithmically growing cells were seeded in a 96-well microplate (5 × 10^4 cells/well) a day before the experiments and after 24 h of culture, tested compounds, dissolved in DMSO, and diluted in culture medium, were added. […] After further incubation for 24 h, the medium was replaced with fresh medium and the cells were allowed to grow for additional 48 h. Then, the medium was aspirated and 0.05 mL of MTT (final concentration of […] medium) added to each well, and the cells were incubated for further 4 h. The absorbance of the product, resulting from the MTT reduction, was read with a microplate reader at 545 nm. The percentage of viable cells was calculated by comparing the absorbance of treated cells with that of the untreated control cells (taken as 100%). The IC50 concentration of each compound was calculated from the cell survival curves using GraphPad Prism 4.02 software for Windows (GraphPad Software, San Diego, CA, USA).
# [3] = tested on: HepG2 (hepatocellular carcinoma); assay: MTT cytotoxicity assay, HepG2; assay type: cell-based, human
# Experimental: as §3, §4
# SKOV-3 cells = assay: Autophagy (acidic vesicular organelles, AVOs), acridine orange staining; assay type: cell-based, human; settings: SKOV-3, IC50 concentrations 24 h, then 0, 24 or 48 h drug-free
# Experimental: To determine the mode of cell death that was triggered by cymantrene derivatives, appropriately stained SKOV-3 cells were evaluated for morphological changes using fluorescence microscopy. For evaluation of apoptosis and autophagy, cells were stained with Hoechst 33258/propidium iodide to distinguish between live, apoptotic and necrotic cells and reveal condensed chromatin and apoptotic bodies (a hallmark of apoptosis), and with acridine orange to detect the development of acidic vesicular organelles (AVOs—a hallmark of autophagy).
# One day prior to the experiments, cells were seeded at the appropriate density into 35 mm diameter dishes. […] At the end of incubation, the medium was aspirated, the cell monolayer was washed twice with pre-warmed PBS, and fresh medium was added. The cells were cultured in drug-free medium for an additional 24 or 48 h to enable them to recover after the exposure to the compounds and to repair any induced damages.
# The ability of tested compounds to induce autophagosome formation inside cells (the process associated with the induction of autophagy) was evaluated by microscopic examination of the morphology of cells stained with acridine orange (AO).
# [4] = tested on: S. aureus ATCC 43300 (MRSA); assay: Antibacterial liquid microdilution (CLSI M07-A8); assay type: cell-based, Staphylococcus aureus; settings: 18 to 24 h
# Experimental: (§1) Organometallic compounds play an increasingly important role in the search for new antibacterial agents. We, therefore, thought to investigate also the bactericidal activity of the newly synthesized cymantrenes 1–7, compound C and CymH. The antibacterial activity of the compounds was tested against Gram-positive methicillin-sensitive Staphylococcus aureus (MSSA), methicillin-resistant S. aureus (MRSA), vancomycin-intermediate S. aureus (VISA), S. epidermidis, and Gram-negative Escherichia coli bacterial strains, and expressed as minimal inhibitory concentration (MIC) values (Table 3).
# (§2) The antibacterial activity of CymH, 1–7 and C and the reference drugs penicillin G and polymyxin B was tested by the liquid microdilution method under standard conditions using twofold dilution series, as described in the Clinical and Laboratory Standards Institute (CLSI), reference method M07-A8, and expressed as minimal inhibitory concentration (MIC) values. A panel of Gram-positive bacterial strains, S. aureus ATCC® 29213 (sensitive to methicillin, (MSSA)), S. aureus ATCC® 43300 (resistant to methicillin, (MRSA)), S. aureus ATCC 700787™ (intermediate to vancomycin, (VISA)), and S. epidermidis ATCC 12228™, and one Gram-negative, strain E. coli ATCC BAA-198™ (ESBL) were used. In addition, four clinical isolates of S. aureus (MSSA and MRSA) and two clinical isolates of S. epidermidis that were collected from different patients at the Medical University of Warsaw, Poland, were also tested. The bacterial cells were cultivated on tryptic soy agar (TSA) and nutrient agar (NA), according to ATCC recommendations. All of the strains were incubated at 37 °C. Tested compounds were dissolved in DMSO and then serially diluted twofold with cation-adjusted Mueller-Hinton broth (CAMHB). Then, 95 µL of the dilutions were dispensed into microdilution sterile plates (Mar-Four), followed by the addition of 5 µL of bacteria inoculum containing 5 × 10^4 CFU/mL. The final concentrations of the compounds ranged from 512 to 2 µg/mL. Each compound was tested in triplicate, and Penicillin G (8–0.15 µg/mL) and Polymyxin B (256–0.0625 µg/mL) were used as controls. The plates were incubated at 37 °C for 18 to 24 h depending on the bacterial strain. Thereafter, the absorbance was measured at λ = 540 nm and λ = 595 nm using a Spectrostar Omega microplate reader (BMG Labtech, Offenburg, Germany). The MIC value was defined as the lowest concentration of a compound that reduced the growth by 100%.
# [5] = tested on: S. aureus ATCC 700787 (VISA); assay: Antibacterial liquid microdilution (CLSI M07-A8); assay type: cell-based, Staphylococcus aureus; settings: 18 to 24 h
# Experimental: as §1, §2
# [6] = tested on: S. epidermidis ATCC 12228; assay: Antibacterial liquid microdilution (CLSI M07-A8); assay type: cell-based, Staphylococcus epidermidis; settings: 18 to 24 h
# Experimental: as §1, §2
# [7] = 24 h incubation, MTT, means ± SEM, read-out: cytotoxicity IC50, SKOV-3
# [8] = read-out: cytotoxicity IC50, A549, 24 h incubation, MTT, means ± SEM
# [9] = 24 h incubation, MTT, means ± SEM, read-out: cytotoxicity IC50, HepG2
SMILES,"IC50 [1, 7] [µM]","IC50 [2, 8] [µM]","IC50 [3, 9] [µM]",induction of autophagy (cells containing AVOs) (SKOV-3 cells),"MIC, S. aureus ATCC 43300 (MRSA) [4] [µg/mL]","MIC, S. aureus ATCC 700787 (VISA) [5] [µg/mL]","MIC, S. epidermidis ATCC 12228 [6] [µg/mL]",IC50 [1] [µM],IC50 [2] [µM],IC50 [3] [µM]
O=c1[nH]c(=O)n(CCC(O)[C]23[CH]4[CH]5[CH]6[CH]2[Mn]5643[P](c2ccccc2)(c2ccccc2)c2ccccc2)cc1F.[C-]#[O+].[C-]#[O+] (racemic) [Compound 3],53 ± 2.65,20.4 ± 1.09,65.8 ± 3.29,very little autophagic activity,>256,>256,>256,,,
COC(CCn1cc(F)c(=O)n(C)c1=O)[C]12[CH]3[CH]4[CH]5[CH]1[Mn]4532.[C-]#[O+].[C-]#[O+].[C-]#[O+] (racemic) [Compound 4],,,,Less induction of autophagy,>512,>512,>512,> 150,> 150,> 150
Nc1ncnc2c1ncn2CCC(O)[C]12[CH]3[CH]4[CH]5[CH]1[Mn]4532[P](c1ccccc1)(c1ccccc1)c1ccccc1.[C-]#[O+].[C-]#[O+] (racemic) [Compound 5],63.8 ± 3.19,23.7 ± 0.86,106 ± 2.31,Less induction of autophagy,>256,>256,>256,,,
COC(CCn1cnc2c(N(C)C)ncnc21)[C]12[CH]3[CH]4[CH]5[CH]1[Mn]4532.[C-]#[O+].[C-]#[O+].[C-]#[O+] (racemic) [Compound 6],,,,greatest autophagic changes,>512,>512,>512,77.1 ± 3.86,102 ± 1.08,86.9 ± 2.34
Nc1ncnc2c1ncn2CCC(O)[C]12[CH]3[CH]4[CH]5[CH]1[Mn]45321[P](c2ccccc2)(c2ccccc2)CC[P]1(c1ccccc1)c1ccccc1.[C-]#[O+] (racemic) [Compound C],,,,greatest autophagic changes,32,32,16,,16.5 ± 0.82,66.6 ± 3.33
O=C(CCn1cc(F)c(=O)[nH]c1=O)[C]12[CH]3[CH]4[CH]5[CH]1[Mn]4532.[C-]#[O+].[C-]#[O+].[C-]#[O+] (stereo not shown) [Compound 1],,,,Less induction of autophagy,32,32,8,75.1 ± 3.76,25.1 ± 1.25,114 ± 2.72
"CCC(=O)[C]12[CH]3[CH]4[CH]5[CH]1[Mn]4532.[C-]#[O+].[C-]#[O+].[C-]#[O+] (stereo not shown) [Compound 7, propionylocymantrene]",,,,greatest autophagic changes,>512,>512,>512,69.8 ± 3.49,30.6 ± 1.35,110 ± 2.48
"O=[C]=[Mn](=[C]=O)(=[C]=O)[CH]1C=CC=C1 [CymH, tricarbonyl(η^5-cyclopentadienyl)manganese, reference compound]",121 ± 3.05,87 ± 1.35,74.7 ± 3.73,greatest autophagic changes,>512,>512,>512,,,
